Laboratory results as given in the NIST ThermoML archive (doi:10.1016/j.jct.2018.03.017).
Numbers after ± are expanded uncertainties.

Assays:
[1] = xn = mol fraction of the nth substance listed; conditions: 96 kPa, Liquid, Pycnometric method, x2 = 0
[2] = 96 kPa, Liquid, Pycnometric method

Structure (SMILES)	mass density ([1]; 288.15 K) [kg/m3]	mass density ([1]; 293.15 K) [kg/m3]	mass density ([1]; 298.15 K) [kg/m3]	mass density ([1]; 303.15 K) [kg/m3]	mass density ([1]; 308.15 K) [kg/m3]	mass density ([1]; 313.15 K) [kg/m3]	mass density ([1]; 318.15 K) [kg/m3]	mass density ([1]; 323.15 K) [kg/m3]	mass density ([1]; 328.15 K) [kg/m3]	mass density ([2]; 288.15 K) [kg/m3]	mass density ([2]; 293.15 K) [kg/m3]	mass density ([2]; 298.15 K) [kg/m3]	mass density ([2]; 303.15 K) [kg/m3]	mass density ([2]; 308.15 K) [kg/m3]	mass density ([2]; 313.15 K) [kg/m3]	mass density ([2]; 318.15 K) [kg/m3]	mass density ([2]; 323.15 K) [kg/m3]	mass density ([2]; 328.15 K) [kg/m3]
OCC(O)CO [glycerol] + C1CCC2=NCCCN2CC1	1262.7 ± 8.2	1260.5 ± 8.2	1257.2 ± 8.2	1254.8 ± 8.2	1251.5 ± 8.2	1248.9 ± 8.2	1246 ± 8.2	1242.4 ± 8.2	1240.5 ± 8.2	–	–	–	–	–	–	–	–	–
C1CCC2=NCCCN2CC1 [1,8-diaza-7-bicyclo[5.4.0]undecene]	–	–	–	–	–	–	–	–	–	1020.6 ± 8.2	1017.1 ± 8.2	1014.1 ± 8.2	1010.9 ± 8.2	1007.4 ± 8.2	1004.6 ± 8.2	1000.8 ± 8.2	998.4 ± 8.2	994.2 ± 8.2
OCC(O)CO [glycerol]	–	–	–	–	–	–	–	–	–	1262.7 ± 8.2	1260.5 ± 8.2	1257.2 ± 8.2	1254.8 ± 8.2	1251.5 ± 8.2	1248.9 ± 8.2	1246 ± 8.2	1242.4 ± 8.2	1240.5 ± 8.2
